Reference: ChEMBL document CHEMBL4145629, “Synthesis of Thymoquinone-Artemisinin Hybrids: New Potent Antileukemia, Antiviral, and Antimalarial Agents” (ACS Med Chem Lett, 2018)

What was measured:
CCRF-CEM = assay: Cytotoxicity against human CCRF-CEM cells assessed as reduction in cell viability after 72 hrs by resazurin dye based assay; assay type: functional
Plasmodium falciparum = assay: Antiplasmodial activity against Plasmodium falciparum 3D7 ring stage parasites infected in human erythrocytes after 72 hrs by SYBR Green 1 dye based fluorescence assay; assay type: functional, organism-based; details: 3D7, 72 h
ADR5000 cell line = assay: Cytotoxicity against human CEM/ADR5000 cells overexpressing P-gp assessed as reduction in cell viability after 72 hrs by resazurin dye based assay; assay type: functional; details: ADR5000, 72 h
HFF = assay: Cytotoxicity against human HFF cells at 1 uM; assay type: cell-based
Human betaherpesvirus 5 [1] = assay: Potency index, ratio of artesunic acid EC50 to compound EC50 for recombinant HCMV AD169 expressing GFP infected in human foreskin fibroblast; assay type: functional
Human betaherpesvirus 5 [2] = assay: Potency index, ratio of ganciclovir EC50 to compound EC50 for recombinant HCMV AD169 expressing GFP infected in human foreskin fibroblast; assay type: functional

Structure (SMILES) | EC50 (CCRF-CEM) [nM] | EC50 (Plasmodium falciparum) [nM] | EC50 (ADR5000 cell line) [nM] | Activity (HFF) [%] | Ratio EC50 (Human betaherpesvirus 5 [1]) | Ratio EC50 (Human betaherpesvirus 5 [2])
CC1=C(CCCOC(=O)CC(=O)OCCOC(=O)CCC(=O)O[C@@H]2O[C@@H]3O[C@@]4(C)CC[C@H]5[C@H](C)CC[C@@H]([C@H]2C)[C@@]35OO4)C(=O)C(C(C)C)=CC1=O | 80 | 4.4 | 8200 |  |  | 
CC1=C(CCCOC(=O)CCC(=O)O[C@@H]2O[C@@H]3O[C@@]4(C)CC[C@H]5[C@H](C)CC[C@@H]([C@H]2C)[C@@]35OO4)C(=O)C(C(C)C)=C(CCCOC(=O)CCC(=O)O[C@@H]2O[C@@H]3O[C@@]4(C)CC[C@H]5[C@H](C)CC[C@@H]([C@H]2C)[C@@]35OO4)C1=O | 200 | 4.3 | 200 |  |  | 
CC1=C(CCOC(=O)CCC(=O)O[C@@H]2O[C@@H]3O[C@@]4(C)CC[C@H]5[C@H](C)CC[C@@H]([C@H]2C)[C@@]35OO4)C(=O)C(C(C)C)=CC1=O | 1200 | 8.2 | 1000 |  |  | 
CC1=C(CCCCOC(=O)C[C@H]2O[C@@H]3O[C@@]4(C)CC[C@H]5[C@H](C)CC[C@@H]([C@H]2C)[C@@]35OO4)C(=O)C(C(C)C)=CC1=O |  | 17.5 |  |  |  | 
CC1=C(CCCCOC(=O)CCC(=O)OCC(C[C@H]2O[C@@H]3O[C@@]4(C)CC[C@H]5[C@H](C)CC[C@@H]([C@H]2C)[C@@]35OO4)C[C@H]2O[C@@H]3O[C@@]4(C)CC[C@H]5[C@H](C)CC[C@@H]([C@H]2C)[C@@]35OO4)C(=O)C(C(C)C)=CC1=O (stereo partly specified) | 2.7 | 12.2 | 7870 | 50 |  | 
CC1=C(CCCOC(=O)CCC(=O)O[C@@H]2O[C@@H]3O[C@@]4(C)CC[C@H]5[C@H](C)CC[C@@H]([C@H]2C)[C@@]35OO4)C(=O)C(C(C)C)=CC1=O | 500 | 6.9 | 1300 |  |  | 
CC1=C(CCCCOC2O[C@@H]3O[C@@]4(C)CC[C@H]5[C@H](C)CC[C@@H]([C@H]2C)[C@@]35OO4)C(=O)C(C(C)C)=CC1=O (stereo partly specified) | 300 | 3.7 | 200 |  | 8 | 5
CC1=C(CCCOC(=O)C[C@H]2O[C@@H]3O[C@@]4(C)CC[C@H]5[C@H](C)CC[C@@H]([C@H]2C)[C@@]35OO4)C(=O)C(C(C)C)=CC1=O |  | 54 |  |  |  | 
CC1=C(CCCOC2O[C@@H]3O[C@@]4(C)CC[C@H]5[C@H](C)CC[C@@H]([C@H]2C)[C@@]35OO4)C(=O)C(C(C)C)=CC1=O (stereo partly specified) | 200 | 5.9 | 200 |  | 8 | 5
CC1=C(CCCCOC(=O)CCC(=O)O[C@@H]2O[C@@H]3O[C@@]4(C)CC[C@H]5[C@H](C)CC[C@@H]([C@H]2C)[C@@]35OO4)C(=O)C(C(C)C)=C(CCCCOC(=O)CCC(=O)O[C@@H]2O[C@@H]3O[C@@]4(C)CC[C@H]5[C@H](C)CC[C@@H]([C@H]2C)[C@@]35OO4)C1=O | 6070 | 12.1 | 5660 | 50 |  | 
CC1=C(CCCCOC(=O)CCC(=O)O[C@@H]2O[C@@H]3O[C@@]4(C)CC[C@H]5[C@H](C)CC[C@@H]([C@H]2C)[C@@]35OO4)C(=O)C(C(C)C)=CC1=O | 1400 | 7.7 | 800 |  |  | 
C[C@H]1[C@H](OC(=O)CCC(=O)O)O[C@@H]2O[C@@]3(C)CC[C@H]4[C@H](C)CC[C@@H]1[C@@]24OO3 [ARTESUNATE] | 400 | 8.2 | 100 |  |  | 
COc1cccc2c1C(=O)c1c(O)c3c(c(O)c1C2=O)C[C@@](O)(C(=O)CO)C[C@@H]3O[C@H]1C[C@H](N)[C@H](O)[C@H](C)O1 [DOXORUBICIN] | 9 |  | 23300 |  |  | 
CC1=CC(=O)C(C(C)C)=CC1=O [THYMOQUINONE] |  | > 80000 |  |  |  | 
